Measurements from ChEMBL document CHEMBL1153762, “Novel, broad-spectrum anticonvulsants containing a sulfamide group: advancement of N-((benzo[b]thien-3-yl)methyl)sulfamide (JNJ-26990990) into human clinical studies” (J Med Chem, 2009).
pIC50: −log10 of the molar value. Calls of active or inactive are those of the source.

How the values were obtained:
[1] = system: Mus musculus; assay: Ratio of compound ED50 to topiramate ED50 for anticonvulsant activity against audiogenic seizures in ip dosed AGS mouse; format: functional
[2] = Plasma concentration in rat assessed as unchanged compound remaining at 59.2 kBq/mg, po after 4 hrs by MS/MS analysis; format: ADME, organism-based; settings: read-out: Activity
[3] = Metabolic stability in rat liver microsomes assessed as compound remaining at 2 uM after 10 mins; format: ADME, Microsome; settings: read-out: Stability
[4] = biological target: Voltage-dependent N-type calcium channel subunit alpha-1B (Rattus norvegicus) (UniProt Q02294); assay: Inhibition of rat Cav2.2 channel expressed in 5 Hz frequency-stimulated HEK cells at 30 uM by whole-cell patch-clamp technique; format: cell-based; settings: HEK293
Chain of Voltage-dependent N-type calcium channel subunit alpha-1B (Rattus norvegicus) (Q02294 whole entry, looked up, the tested form may be a part): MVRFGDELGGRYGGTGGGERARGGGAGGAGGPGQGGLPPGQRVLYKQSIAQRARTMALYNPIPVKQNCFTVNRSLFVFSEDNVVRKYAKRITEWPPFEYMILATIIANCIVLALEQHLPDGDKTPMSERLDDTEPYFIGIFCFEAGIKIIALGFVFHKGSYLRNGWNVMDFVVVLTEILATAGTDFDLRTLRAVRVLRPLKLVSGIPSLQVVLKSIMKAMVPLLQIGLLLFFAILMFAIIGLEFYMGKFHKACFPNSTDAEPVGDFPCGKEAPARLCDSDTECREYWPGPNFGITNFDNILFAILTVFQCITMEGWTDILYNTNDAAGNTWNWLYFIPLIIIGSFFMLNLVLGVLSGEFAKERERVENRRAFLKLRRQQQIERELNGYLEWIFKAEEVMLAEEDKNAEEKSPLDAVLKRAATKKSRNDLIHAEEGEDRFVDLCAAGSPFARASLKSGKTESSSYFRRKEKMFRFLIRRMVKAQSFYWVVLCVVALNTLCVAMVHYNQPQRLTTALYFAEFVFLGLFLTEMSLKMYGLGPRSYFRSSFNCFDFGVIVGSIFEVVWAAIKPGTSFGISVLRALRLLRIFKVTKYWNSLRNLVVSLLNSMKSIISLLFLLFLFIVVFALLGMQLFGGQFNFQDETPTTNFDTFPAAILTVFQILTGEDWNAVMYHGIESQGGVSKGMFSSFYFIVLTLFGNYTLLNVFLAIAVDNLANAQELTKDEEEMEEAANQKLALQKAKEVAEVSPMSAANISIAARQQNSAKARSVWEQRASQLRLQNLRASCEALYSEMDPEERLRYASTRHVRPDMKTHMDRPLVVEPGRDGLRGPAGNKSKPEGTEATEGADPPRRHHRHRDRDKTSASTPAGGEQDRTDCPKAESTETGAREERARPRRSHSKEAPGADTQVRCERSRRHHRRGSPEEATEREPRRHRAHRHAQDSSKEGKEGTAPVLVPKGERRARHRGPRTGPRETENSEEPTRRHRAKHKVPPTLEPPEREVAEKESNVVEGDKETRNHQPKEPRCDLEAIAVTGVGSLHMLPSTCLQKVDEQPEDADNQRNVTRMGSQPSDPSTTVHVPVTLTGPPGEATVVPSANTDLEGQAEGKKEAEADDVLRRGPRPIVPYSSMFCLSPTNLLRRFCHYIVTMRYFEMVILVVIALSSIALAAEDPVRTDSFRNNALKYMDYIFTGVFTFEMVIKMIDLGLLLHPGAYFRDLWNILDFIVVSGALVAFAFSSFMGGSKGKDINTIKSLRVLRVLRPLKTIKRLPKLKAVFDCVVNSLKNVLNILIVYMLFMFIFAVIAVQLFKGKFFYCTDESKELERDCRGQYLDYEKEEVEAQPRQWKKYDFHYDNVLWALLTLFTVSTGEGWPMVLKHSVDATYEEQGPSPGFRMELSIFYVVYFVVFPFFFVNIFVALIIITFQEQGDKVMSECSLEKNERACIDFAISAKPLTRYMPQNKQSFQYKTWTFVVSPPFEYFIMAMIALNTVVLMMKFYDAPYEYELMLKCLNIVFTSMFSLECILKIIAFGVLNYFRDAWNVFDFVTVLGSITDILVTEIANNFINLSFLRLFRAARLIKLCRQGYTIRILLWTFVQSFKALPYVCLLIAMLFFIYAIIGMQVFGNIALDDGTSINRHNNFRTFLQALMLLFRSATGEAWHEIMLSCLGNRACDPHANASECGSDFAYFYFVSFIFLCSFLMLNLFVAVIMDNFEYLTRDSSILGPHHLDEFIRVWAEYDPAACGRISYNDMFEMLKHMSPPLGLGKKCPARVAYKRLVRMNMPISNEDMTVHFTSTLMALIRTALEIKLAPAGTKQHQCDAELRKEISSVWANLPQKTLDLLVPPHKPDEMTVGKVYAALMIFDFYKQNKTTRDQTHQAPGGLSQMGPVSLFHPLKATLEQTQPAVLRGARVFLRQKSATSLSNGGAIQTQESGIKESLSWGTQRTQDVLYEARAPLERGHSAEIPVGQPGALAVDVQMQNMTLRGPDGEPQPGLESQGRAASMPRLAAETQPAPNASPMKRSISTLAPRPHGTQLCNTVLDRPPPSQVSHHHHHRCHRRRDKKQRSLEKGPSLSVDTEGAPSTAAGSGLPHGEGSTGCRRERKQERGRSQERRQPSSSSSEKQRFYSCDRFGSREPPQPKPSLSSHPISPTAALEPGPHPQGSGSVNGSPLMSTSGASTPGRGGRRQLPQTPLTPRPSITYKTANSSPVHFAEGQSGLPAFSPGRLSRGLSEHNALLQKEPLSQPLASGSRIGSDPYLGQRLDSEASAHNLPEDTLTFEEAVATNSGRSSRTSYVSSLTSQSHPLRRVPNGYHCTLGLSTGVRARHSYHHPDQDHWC

[5] = Bioavailability in mouse at 30 mg/kg, po and 3 mg/kg, iv administered as bolus dose; format: ADME, organism-based; settings: in vivo
[6] = Neurotoxicity in ip dosed mouse assessed as motor impairment by rotarod test; format: toxicity, organism-based; settings: in vivo
[7] = Metabolic stability in human liver microsomes assessed as compound remaining at 2 uM after 10 mins; format: ADME, Microsome; settings: read-out: Stability
[8] = Half life in mouse at 30 mg/kg, po administered as bolus dose; format: ADME, organism-based; parameters: dose 30 mg/kg, route oral; settings: in vivo
[9] = system: Rattus norvegicus; assay: Anticonvulsant activity against maximal electroshock-induced seizure in po dosed Sprague-Dawley rat after 2 hrs; format: functional; settings: Rattus norvegicus, Sprague-Dawley, po, 2 h; read-out: ED50
[10] = system: Mus musculus; assay: Anticonvulsant activity against pentylenetetrazole-induced seizure in CF1 mouse assessed as increase in threshold of seizure twitch at 182 mg/kg, ip administered 15 mins before pentylenetetrazole infusion; format: functional; settings: route intraperitoneal
[11] = biological target: Potassium voltage-gated channel subfamily KQT member 2 (Rattus norvegicus) (UniProt O88943); assay: Activation of rat Kv7.2 assessed as increase in channel current at membrane potential of -70 to -3- mV at 300 uM by whole-cell patch-clamp technique; format: cell membranes
[12] = biological target: Sodium channel protein type 2 subunit alpha (Rattus norvegicus) (UniProt P04775); assay: Inhibition of rat Nav1.2 channel expressed in chinese hamster CHL1610 cells at preconditioning pulse of -107 mV after 2 to 3 mins by whole-cell patch-clamp technique; format: cell-based
Chain of Sodium channel protein type 2 subunit alpha (Rattus norvegicus) (P04775 whole entry, looked up): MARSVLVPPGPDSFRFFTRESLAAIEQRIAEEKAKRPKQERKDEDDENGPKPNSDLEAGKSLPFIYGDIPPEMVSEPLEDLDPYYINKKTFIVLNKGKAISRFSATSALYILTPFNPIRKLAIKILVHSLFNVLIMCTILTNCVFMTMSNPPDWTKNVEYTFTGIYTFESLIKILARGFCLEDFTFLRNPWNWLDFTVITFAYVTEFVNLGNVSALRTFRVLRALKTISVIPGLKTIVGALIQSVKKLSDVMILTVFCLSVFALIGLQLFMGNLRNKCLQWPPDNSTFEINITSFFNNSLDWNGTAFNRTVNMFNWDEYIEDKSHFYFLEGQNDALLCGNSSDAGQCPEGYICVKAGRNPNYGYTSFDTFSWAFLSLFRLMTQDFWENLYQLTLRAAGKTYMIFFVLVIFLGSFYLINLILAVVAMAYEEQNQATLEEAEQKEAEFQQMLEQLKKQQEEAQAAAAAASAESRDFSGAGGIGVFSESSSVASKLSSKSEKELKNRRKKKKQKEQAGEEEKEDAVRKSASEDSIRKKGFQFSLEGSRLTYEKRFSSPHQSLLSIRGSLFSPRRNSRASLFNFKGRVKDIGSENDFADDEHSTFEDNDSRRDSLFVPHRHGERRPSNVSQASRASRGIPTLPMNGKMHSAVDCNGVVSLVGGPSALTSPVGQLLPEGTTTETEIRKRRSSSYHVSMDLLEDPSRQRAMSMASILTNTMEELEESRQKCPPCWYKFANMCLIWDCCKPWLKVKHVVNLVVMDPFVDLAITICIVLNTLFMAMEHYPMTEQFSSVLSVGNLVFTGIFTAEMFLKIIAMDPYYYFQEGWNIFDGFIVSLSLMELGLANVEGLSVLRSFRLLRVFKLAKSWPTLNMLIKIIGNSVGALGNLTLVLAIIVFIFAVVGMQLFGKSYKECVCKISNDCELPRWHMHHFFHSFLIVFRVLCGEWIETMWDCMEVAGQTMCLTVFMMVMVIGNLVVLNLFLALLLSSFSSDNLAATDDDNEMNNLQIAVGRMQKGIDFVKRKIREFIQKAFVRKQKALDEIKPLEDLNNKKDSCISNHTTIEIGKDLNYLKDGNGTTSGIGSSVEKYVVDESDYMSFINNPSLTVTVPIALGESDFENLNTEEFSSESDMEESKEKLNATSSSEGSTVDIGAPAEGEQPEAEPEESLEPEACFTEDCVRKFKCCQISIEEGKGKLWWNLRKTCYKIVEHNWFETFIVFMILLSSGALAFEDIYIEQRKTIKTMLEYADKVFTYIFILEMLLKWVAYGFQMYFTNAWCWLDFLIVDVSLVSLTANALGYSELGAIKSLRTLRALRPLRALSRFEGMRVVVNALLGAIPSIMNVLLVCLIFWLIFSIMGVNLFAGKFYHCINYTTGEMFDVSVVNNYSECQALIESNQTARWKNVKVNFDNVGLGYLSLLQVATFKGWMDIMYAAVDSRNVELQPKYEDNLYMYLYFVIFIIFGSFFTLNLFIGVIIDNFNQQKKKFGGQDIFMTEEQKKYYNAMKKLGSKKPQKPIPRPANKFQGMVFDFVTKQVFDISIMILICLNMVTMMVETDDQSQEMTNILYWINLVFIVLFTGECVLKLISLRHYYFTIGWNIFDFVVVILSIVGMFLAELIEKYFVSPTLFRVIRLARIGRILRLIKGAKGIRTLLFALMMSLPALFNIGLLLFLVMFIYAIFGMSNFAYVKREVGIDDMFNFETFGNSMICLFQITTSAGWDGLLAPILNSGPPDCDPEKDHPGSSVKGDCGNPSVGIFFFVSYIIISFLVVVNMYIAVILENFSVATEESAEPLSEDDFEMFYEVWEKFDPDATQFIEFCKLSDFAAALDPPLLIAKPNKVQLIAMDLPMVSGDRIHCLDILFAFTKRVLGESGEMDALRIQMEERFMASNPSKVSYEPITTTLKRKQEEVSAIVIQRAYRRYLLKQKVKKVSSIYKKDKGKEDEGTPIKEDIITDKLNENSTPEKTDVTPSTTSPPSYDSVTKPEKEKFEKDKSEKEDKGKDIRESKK

[13] = Ratio of drug level in brain to plasma in rat at 30 mg/kg, po up to 6 hrs; format: ADME, organism-based; parameters: dose 30 mg/kg, route oral; settings: brain and plasma, read-out: BPR
[14] = system: Mus musculus; assay: Anticonvulsant activity against maximal electroshock-induced seizure in po dosed CF1 mouse after 1 hr; format: functional; settings: Mus musculus, CF1, po, 1 h; read-out: ED50
[15] = system: Rattus norvegicus; assay: Anticonvulsant activity against electric stimulation-induced focal seizure in ip dosed Sprague-Dawley rat kindling model assessed as reduction of after-discharge duration administered 15 mins after last electric stimulation measured after 15 mins to 1 hr; format: functional; parameters: scale not given: the % may be the effect or the level left
[16] = system: Mus musculus; assay: Anticonvulsant activity against bicuculline-induced seizure in ip dosed CF1 mouse after 0.25 hrs; format: functional; settings: Mus musculus, CF1, ip, 0.25 h; read-out: ED50
[17] = system: Mus musculus; assay: Anticonvulsant activity against maximal electroshock-induced seizure in po dosed CF1 mouse after 3 hrs; format: functional
[18] = Plasma concentration in rat at 30 mg/kg, po after 2 hrs by LC/MS analysis; format: ADME, organism-based; parameters: dose 30 mg/kg, route oral
[19] = biological target: Carbonic anhydrase 1 (Homo sapiens, UniProt P00915); assay: Inhibition of carbonic anhydrase 1
Chain of Carbonic anhydrase 1 (P00915 whole entry): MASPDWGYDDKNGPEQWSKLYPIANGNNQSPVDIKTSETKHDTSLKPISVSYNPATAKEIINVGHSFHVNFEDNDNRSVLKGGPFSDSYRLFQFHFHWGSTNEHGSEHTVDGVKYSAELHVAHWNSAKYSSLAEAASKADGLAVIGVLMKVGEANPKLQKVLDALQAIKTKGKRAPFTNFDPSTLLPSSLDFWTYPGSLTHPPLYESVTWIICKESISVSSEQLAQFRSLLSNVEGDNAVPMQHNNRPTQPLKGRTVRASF

[20] = system: Mus musculus; assay: Total body water content in mouse at 30 mg/kg, po and 3 mg/kg, iv administered as bolus dose; format: ADME, organism-based; settings: in vivo
[21] = organism: Mus musculus; assay: Inhibition of kainate receptor in mouse cortical neuron assessed as inhibition of kainic acid-induced receptor current at 100 uM by whole-cell patch-clamp technique
[22] = Cmax in mouse at 30 mg/kg, po administered as bolus dose; format: ADME, organism-based; parameters: dose 30 mg/kg, route oral; settings: in vivo
[23] = system: Mus musculus; assay: Anticonvulsant activity against audiogenic seizures in ip dosed AGS mouse assessed as inhibition of hindlimb tonic extension administered 1 hr prior to 11 kHz sound induction; format: functional; settings: Mus musculus, AGS, Hindlimb, ip; read-out: ED50
[24] = Bioavailability in rat at 10 mg/kg, po; format: ADME, organism-based; settings: in vivo
[25] = system: Mus musculus; assay: Anticonvulsant activity against pentylenetetrazole-induced seizure in ip dosed CF1 mouse after 0.25 hrs; format: functional; settings: Mus musculus, CF1, ip, 0.25 h; read-out: ED50
[26] = organism: Mus musculus; assay: Inhibition of NMDA receptor in mouse cortical neuron assessed as inhibition of glycine-induced receptor current at 100 uM by whole-cell patch-clamp technique
[27] = Volume of distribution at steady state in mouse at 30 mg/kg, po and 3 mg/kg, iv administered as bolus dose; format: ADME, organism-based; settings: in vivo, read-out: Vdss
[28] = system: Rattus norvegicus; assay: Protective index, ratio of TD50 for neurotoxicity in po dosed rat to ED50 for anticonvulsant activity against maximal electroshock-induced seizure in po dosed rat; format: functional
[29] = Metabolic stability in rat urine assessed as formation of benzothiophene-3-carboxylic acid at 59.2 kBq/mg, po after 8 to 24 hrs by MS/MS analysis; format: ADME, organism-based; settings: in vivo
[30] = Bioavailability in rat at 2 mg/kg, po; format: ADME, organism-based; settings: in vivo
[31] = system: Mus musculus; assay: Anticonvulsant activity against picrotoxin-induced seizure in ip dosed CF1 mouse after 0.25 hrs; format: functional
[32] = Half life in human liver microsomes at 2 uM; format: ADME, Microsome
[33] = system: Plasma; assay: Metabolic stability in rat plasma assessed as formation of biotransformation product N-[(1-oxido-1-benzothien-3-yl)methyl]sulfamide at 500 mg, po up to 72 hrs by MS/MS analysis; format: ADME, organism-based; settings: in vivo
[34] = Neurotoxicity in po dosed rat assessed as motor impairment by rotarod test; format: toxicity, organism-based; settings: in vivo
[35] = system: Mus musculus; assay: Anticonvulsant activity against pentylenetetrazole-induced seizure in CF1 mouse assessed as increase in threshold of seizure twitch at 107 mg/kg, ip administered 15 mins before pentylenetetrazole infusion; format: functional; settings: route intraperitoneal
[36] = Drug level in rat brain at 30 mg/kg, po after 2 hrs by LC/MS analysis; format: ADME, organism-based; parameters: dose 30 mg/kg, route oral; settings: read-out: Drug uptake
[37] = Half life in mouse at 3 mg/kg, iv administered as bolus dose; format: ADME, organism-based; parameters: dose 3 mg/kg, route intravenous; settings: in vivo
[38] = Metabolic stability in rat urine assessed as formation of [(Benzo[b]thiophene-3-carbonyl)-amino]-acetic acid at 59.2 kBq/mg, po after 8 to 24 hrs by MS/MS analysis; format: ADME, organism-based; settings: in vivo
[39] = Metabolic stability in rat urine assessed as formation of biotransformation product N-[(1-oxido-1-benzothien-3-yl)methyl]sulfamide at 500 mg, po up to 24 hrs by MS/MS analysis; format: ADME, organism-based; settings: in vivo
[40] = system: Rattus norvegicus; assay: Total body water content in rat at 2 mg/kg, iv; format: ADME, organism-based; parameters: dose 2 mg/kg, route intravenous; settings: in vivo
[41] = biological target: Voltage-dependent N-type calcium channel subunit alpha-1B (Rattus norvegicus) (UniProt Q02294); assay: Inhibition of rat Cav2.2 channel expressed in 0.07 Hz frequency-stimulated HEK cells at 30 uM by whole-cell patch-clamp technique; format: cell-based; settings: HEK293
[42] = Clearance in mouse at 30 mg/kg, po and 3 mg/kg, iv administered as bolus dose; format: ADME, organism-based; settings: in vivo
[43] = system: Plasma; assay: Metabolic stability in rat plasma assessed as formation of N-[(1-oxido-1-benzothien-3-yl)methyl]sulfamide at 59.2 kBq/mg, po after 4 hrs by MS/MS analysis; format: ADME, organism-based; settings: in vivo
[44] = biological target: Sodium channel protein type 2 subunit alpha (Rattus norvegicus, UniProt P04775); assay: (§1) Inhibition of rat Nav1.2 channel expressed in chinese hamster CHL1610 cells at preconditioning pulse of -67 mV after 2 to 3 mins by whole-cell patch-clamp technique; format: cell-based
Chain of Sodium channel protein type 2 subunit alpha (P04775 whole entry): as the sequence (P04775 whole entry, looked up) above

[45] = biological target: Sodium channel protein type 2 subunit alpha (Rattus norvegicus) (UniProt P04775); assay: as §1; format: cell-based
[46] = biological target: Voltage-dependent N-type calcium channel subunit alpha-1B (Rattus norvegicus) (UniProt Q02294); assay: Inhibition of rat Cav2.2 channel expressed in HEK cells assessed as depolarization-induced calcium influx by fluorescence-based assay; format: cell-based; settings: HEK293
[47] = system: Mus musculus; assay: Anticonvulsant activity against pentylenetetrazole-induced seizure in CF1 mouse assessed as increase in seizure threshold for clonus at 182 mg/kg, ip administered 15 mins before pentylenetetrazole infusion; format: functional; settings: route intraperitoneal
[48] = system: Plasma; assay: Metabolic stability in rat plasma assessed as formation of benzothiophene-3-carboxylic acid at 59.2 kBq/mg, po after 4 hrs by MS/MS analysis; format: ADME, organism-based; settings: in vivo
[49] = biological target: Voltage-dependent N-type calcium channel subunit alpha-1B (Rattus norvegicus) (UniProt Q02294); assay: (§2) Inhibition of rat Cav2.2 channel expressed in 0.07 Hz frequency-stimulated HEK cells by whole-cell patch-clamp technique; format: cell-based; settings: HEK293
[50] = biological target: Voltage-dependent N-type calcium channel subunit alpha-1B (Rattus norvegicus, UniProt Q02294); assay: as §2; format: cell-based, HEK293
Chain of Voltage-dependent N-type calcium channel subunit alpha-1B (Q02294 whole entry, the tested form may be a part): as the sequence (Q02294 whole entry, looked up, the tested form may be a part) above

[51] = system: Mus musculus; assay: Anticonvulsant activity against pentylenetetrazole-induced seizure in CF1 mouse assessed as increase in seizure threshold for clonus at 107 mg/kg, ip administered 15 mins before pentylenetetrazole infusion; format: functional; settings: route intraperitoneal
[52] = Metabolic stability in mouse liver microsomes assessed as compound remaining at 2 uM after 10 mins; format: ADME, Microsome; settings: read-out: Stability
[53] = biological target: Carbonic anhydrase 2 (Homo sapiens, UniProt P00918); assay: Inhibition of human carbonic anhydrase 2 by fluorimetric assay
[54] = organism: Mus musculus; assay: Activation of GABA receptor in mouse cortical neuron assessed as increase in GABA-induced receptor current at 100 uM by whole-cell patch-clamp technique
[55] = Metabolic stability in rat urine assessed as formation of N-[(1-oxido-1-benzothien-3-yl)methyl]sulfamide at 59.2 kBq/mg, po after 24 hrs by MS/MS analysis; format: ADME, organism-based; settings: in vivo

NS(=O)(=O)NCc1csc2ccccc12
Ratio ED50 [1]: 5 | remaining at 4 h [2]: 60% | remaining at 10 min, 2 µM [3]: 76% | inhibition [4]: 30% | bioavailability [5]: 59% | TD50 [6]: 182 mg/kg | remaining at 10 min, 2 µM [7]: 90% | half-life [8]: 90 min | ED50 [9]: 34 mg/kg | Activity [10]: 141% | Activity [11]: inactive | inhibition [12]: inactive | Kp at 6 h [13]: 2.5 | ED50 [14]: 107 mg/kg | Activity [15]: 64% | ED50 [16]: 156 mg/kg | ED50 [17]: 119 mg/kg | concentration at 2 h [18]: 19 µM | pIC50 [19]: 4.60 | Activity [20]: 725 mL/kg | inhibition [21]: 8% | Cmax [22]: 3900 ng/mL | ED50 [23]: 21 mg/kg | bioavailability [24]: 96% | ED50 [25]: 161 mg/kg | inhibition [26]: 23% | Vd [27]: 2.9 L/kg | Ratio TD50/ED50 [28]: >15 | Activity [29]: 0.5% | bioavailability [30]: 89% | ED50 [31]: 106 mg/kg | half-life at 2 µM [32]: > 100 min | Activity [33]: 78% | TD50 [34]: > 500 mg/kg | Activity [35]: 129% | concentration at 2 h [36]: 47 µM | half-life [37]: 90 min | Activity [38]: 4.2% | Activity [39]: 46% | Activity [40]: 670 mL/kg | inhibition [41]: 20% | clearance [42]: 30 mL/min/kg | Activity [43]: 31% | pIC50 [44]: 4.32 | inhibition [45]: Dose-dependent effect | inhibition [46]: Dose-dependent effect | Activity [47]: 159% | Activity [48]: 9% | inhibition [49]: Dose-dependent effect | pIC50 [50]: 3.88 | Activity [51]: 147% | remaining at 10 min, 2 µM [52]: 83% | pIC50 [53]: 4.18 | inhibition [54]: 2% | Activity [55]: 48%
